Data on two molecules can be found in patent publication US20170190705A1, “Compositions and Methods for Inhibiting BMP” (THE BRIGHAM AND WOMAN'S HOSPITAL, INC., priority 2014, published 2017).

Each structure is given as a SMILES string.

One experiment deals with PAK1 (Homo sapiens, UniProt Q13153). Kind of experiment: Kinome profiling PAK1. Particulars: read-out: Inhibitory activity PAK1; for inhibition at 0.1 µM: 100 nM. The class given is biochemical. As to the method: (§1) . The kinome-wide selectivity was determined following the methods previously reported by Mohedas et al., ACS Chem Biol 2013, 8, 1291-1302 and Sanvitale et al., PLoS One 2013, 8, e62721.
Chain of PAK1 (Q13153 whole entry): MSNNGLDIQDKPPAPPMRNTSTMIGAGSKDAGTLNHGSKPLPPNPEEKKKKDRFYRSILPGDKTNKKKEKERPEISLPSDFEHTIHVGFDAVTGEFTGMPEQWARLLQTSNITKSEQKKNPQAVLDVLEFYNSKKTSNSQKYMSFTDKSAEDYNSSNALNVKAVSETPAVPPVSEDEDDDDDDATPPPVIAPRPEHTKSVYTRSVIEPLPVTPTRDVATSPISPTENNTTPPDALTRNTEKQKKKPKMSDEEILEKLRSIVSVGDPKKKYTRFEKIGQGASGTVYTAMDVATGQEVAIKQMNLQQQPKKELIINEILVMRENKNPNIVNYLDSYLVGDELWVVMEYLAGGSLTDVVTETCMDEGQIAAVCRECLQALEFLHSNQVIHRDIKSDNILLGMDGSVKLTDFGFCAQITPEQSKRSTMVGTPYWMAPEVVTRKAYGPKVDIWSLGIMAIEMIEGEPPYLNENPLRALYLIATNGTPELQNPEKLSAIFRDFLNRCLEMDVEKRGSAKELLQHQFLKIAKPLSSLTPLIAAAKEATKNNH

A further experiment has as its target T1, PRKD3 (Homo sapiens, UniProt O94806).
T1 sequence (O94806 1-890): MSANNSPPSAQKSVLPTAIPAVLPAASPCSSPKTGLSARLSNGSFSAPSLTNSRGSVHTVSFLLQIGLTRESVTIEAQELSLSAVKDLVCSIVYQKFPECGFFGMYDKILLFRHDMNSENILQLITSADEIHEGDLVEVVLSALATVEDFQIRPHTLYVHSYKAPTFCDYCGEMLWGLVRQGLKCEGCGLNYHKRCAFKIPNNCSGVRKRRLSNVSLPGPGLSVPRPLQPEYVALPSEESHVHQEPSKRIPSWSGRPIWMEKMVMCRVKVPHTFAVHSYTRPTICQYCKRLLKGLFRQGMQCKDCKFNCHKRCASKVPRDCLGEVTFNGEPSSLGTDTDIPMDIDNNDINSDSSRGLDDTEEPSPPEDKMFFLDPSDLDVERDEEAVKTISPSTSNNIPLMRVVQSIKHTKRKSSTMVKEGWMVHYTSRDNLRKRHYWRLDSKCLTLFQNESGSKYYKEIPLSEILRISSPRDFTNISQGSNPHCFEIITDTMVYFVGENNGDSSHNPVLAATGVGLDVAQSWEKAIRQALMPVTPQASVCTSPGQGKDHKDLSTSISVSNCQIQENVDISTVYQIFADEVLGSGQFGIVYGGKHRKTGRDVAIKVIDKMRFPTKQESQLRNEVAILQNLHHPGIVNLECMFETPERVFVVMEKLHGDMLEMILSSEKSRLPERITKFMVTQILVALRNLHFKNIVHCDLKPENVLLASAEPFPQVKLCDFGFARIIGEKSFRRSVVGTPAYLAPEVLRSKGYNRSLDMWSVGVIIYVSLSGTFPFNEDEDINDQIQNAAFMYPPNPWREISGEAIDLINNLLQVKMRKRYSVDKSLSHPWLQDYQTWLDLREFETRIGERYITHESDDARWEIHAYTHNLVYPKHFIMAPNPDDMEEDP
Nature of the experiment: Kinome profiling PRKD3. To be noted: read-out: Inhibitory activity PRKD3; for inhibition at 0.1 µM: 100 nM. The class given is biochemical. As to the method:
as §1

For a further experiment, the target named is T2, PHKγ2 (Homo sapiens, UniProt P15735).
T2 sequence (P15735 1-406): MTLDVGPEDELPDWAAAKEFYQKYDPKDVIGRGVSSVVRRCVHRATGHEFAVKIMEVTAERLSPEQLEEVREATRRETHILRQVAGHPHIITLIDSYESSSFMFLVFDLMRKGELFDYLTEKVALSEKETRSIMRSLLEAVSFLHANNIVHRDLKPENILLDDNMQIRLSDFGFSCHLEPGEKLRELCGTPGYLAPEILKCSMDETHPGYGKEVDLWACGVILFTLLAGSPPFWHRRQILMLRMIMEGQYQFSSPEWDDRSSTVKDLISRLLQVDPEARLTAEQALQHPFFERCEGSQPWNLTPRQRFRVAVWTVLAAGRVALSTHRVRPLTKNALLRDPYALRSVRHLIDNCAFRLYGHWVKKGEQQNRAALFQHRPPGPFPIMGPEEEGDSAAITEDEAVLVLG
Kind of experiment: Kinome profiling PHKγ2. The class given is biochemical. Particulars: read-out: Inhibitory activity PHKγ2; for inhibition at 0.1 µM: 100 nM. The protocol: as §1

For another experiment, the target named is DYRK1A (Homo sapiens, UniProt Q13627). Kind of experiment: Kinome profiling DYRK1A. The class given is biochemical. Particulars: read-out: Inhibitory activity DYRK1A; for inhibition at 0.1 µM: 100 nM. As to the method: as §1
For another experiment, the target named is T3, caALK4 (Homo sapiens, UniProt P36896).
T3 sequence (P36896 1-505 T206D): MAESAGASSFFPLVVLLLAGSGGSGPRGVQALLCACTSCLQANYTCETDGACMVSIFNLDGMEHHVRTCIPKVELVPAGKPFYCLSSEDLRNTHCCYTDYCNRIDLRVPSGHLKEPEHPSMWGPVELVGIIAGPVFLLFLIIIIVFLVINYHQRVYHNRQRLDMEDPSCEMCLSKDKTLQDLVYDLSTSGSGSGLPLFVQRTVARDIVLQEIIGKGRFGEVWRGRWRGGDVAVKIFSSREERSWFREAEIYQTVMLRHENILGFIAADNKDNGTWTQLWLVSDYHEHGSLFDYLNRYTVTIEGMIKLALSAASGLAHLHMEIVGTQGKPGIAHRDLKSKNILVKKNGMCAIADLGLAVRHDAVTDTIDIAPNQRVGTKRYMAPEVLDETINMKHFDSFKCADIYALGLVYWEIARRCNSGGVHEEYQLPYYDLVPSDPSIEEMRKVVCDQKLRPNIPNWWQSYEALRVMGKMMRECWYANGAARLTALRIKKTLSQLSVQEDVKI
Nature of the experiment: Luciferase reporter assay constitutively active ALK4. Particulars: read-out: Cell Based Assay caALK4 IC50. The source says: C2Cl2 […] cells stably transfected with BMP responsive element from the Id promoter fused to luciferase reporter gene (BRE-Luc) were generously provided by Dr. Peter ten Dijke (Leiden University Medical Center, NL) following the methods described by Zilberberg et al., BMC cell biology 2007, 8, 41-50. Human embryonic kidney 293T cells stably transfected with the TGF-β responsive element from the PAI-1 promoter fused to luciferase reporter gene (CAGA-Luc) were generously provided by Dr. Howard Weiner (Brigham and Women's Hospital, Boston, Mass.) following the methods described by Oida et al., PloS one 2011, 6, e18365. C2Cl2 Bre-Luc and 293T CAGA-Luc cells were seeded in DMEM supplemented with 2% FBS at 20,000 cells per well in tissue culture treated 96-well plates (Costar® 3610; Corning). The cells were incubated for 1 h (37° C. and 10% CO2) and allowed to settle and attach. Compounds of interest or DMSO were diluted in DMEM and added at final compound concentrations of 1 nM to 10 μM. Cells were then incubated for 30 min. Adenovirus expressing constitutively active BMP and TGF-β type I receptors (Ad.caALK1-5), generously provided by Dr. Akiko Hata (University of to California at San Francisco), were added to achieve a multiplicity of infection (MOI) of 100. Plates were incubated overnight at 37° C. Cell viability was assayed with an MIT (3-(4,5-dimethylthiazol-2-yl)-2,5-diphenyl tetrazolium bromide) colorimetric assay (Promega) per the manufacturer's instructions. Media was discarded, and firefly luciferase activity was measured (Promega) according to manufacturer's protocol. Light output was measured using a Spectramax L luminometer (Molecular Devices) with an integration time of one second per well. Data was normalized to 100% of incremental BRE-Luc activity due to adenoviruses specifying caALK1, 2, or 3, or the incremental CAGA-Luc activity due to adenoviruses specifying caALK4 or 5.
In general terms: A reporter such as luciferase makes a cellular process visible.

Broadly, the IC50 is the concentration at which inhibition is half-maximal. `COc1cc(-c2cc(-c3ccc(N4CCNCC4)cc3)cnc2C)cc(OC)c1OC` [Compound 10, 1-(4-(6-methyl-5-(3,4,5-trimethoxyphenyl)pyridin-3-yl)phenyl)piperazine]: the inhibition at 0.1 µM worked out at 2% at PAK1, 2% at PRKD3, 1% on PHKγ2 and 3% at DYRK1A. Further, the inhibition at 1 µM on PAK1 worked out at 3%; on PRKD3, 21%; on PHKγ2, 0%; on DYRK1A it was 5%. Besides, the IC50 at caALK4 was 5530 nM.
`COc1cc(-c2cc(-c3ccc(N4CCNCC4)cc3)cnc2N)cc(OC)c1OC` [Compound 15, 5-(4-(piperazin-1-yl)phenyl)-3-(3,4,5-trimethoxyphenyl)pyridin-2-amine]: the inhibition at 0.1 µM at PAK1 was determined as 0%; at PRKD3, 7%; on PHKγ2, 2%; at DYRK1A, 2%. Moreover, the inhibition at 1 µM came out at 6% on PAK1, 38% on PRKD3, 3% on PHKγ2 and 5% at DYRK1A. Besides, the IC50 at caALK4 was 25 nM.
